# Data taken from ChEMBL document CHEMBL5727116, “Pyrazole compounds and methods of making and using same” (2019).
# What was measured:
# [1] = molecular target: T1, Fatty-acid amide hydrolase 1 (Mus musculus, UniProt O08914); assay: (§1) In Vitro Competitive Activity-Based Protein Profiling: Proteomes (mouse brain membrane fraction or cell lysates for mouse assays; human prefrontal cortex or cell membrane fractions for human assays) (50 μL, 1.0 mg/mL total protein concentration) were preincubated with varying concentrations of inhibitors at 37° C. After 30 min, FP—Rh or HT-01 (1.0 μL, 50 μM in DMSO) was added and the mixture was incubated for another 30 min at 37° C. Reactions were quenched with SDS loading buffer (15 μL-4×) and run on SDS-PAGE. Following gel imaging, serine hydrolase activity was determined by measuring fluorescent intensity of gel bands corresponding to MAGL and FAAH using ImageJ 1.43u software.Preparation of Mouse Brain Proteomes from Inhibitor Treated Mice.Inhibitors were administered to wild-type C57Bl/6J by oral gavage in a vehicle of polyethylene glycol. Each animal was sacrificed 4 h following administration and brain proteomes were prepared and analyzed according to previously established methods (See Niphakis, M. J., et al. (2011) ACS Chem. Neurosci. and Long, J. Z., et al. Nat. Chem. Biol. 5:37-44).
# T1 sequence (O08914 whole entry): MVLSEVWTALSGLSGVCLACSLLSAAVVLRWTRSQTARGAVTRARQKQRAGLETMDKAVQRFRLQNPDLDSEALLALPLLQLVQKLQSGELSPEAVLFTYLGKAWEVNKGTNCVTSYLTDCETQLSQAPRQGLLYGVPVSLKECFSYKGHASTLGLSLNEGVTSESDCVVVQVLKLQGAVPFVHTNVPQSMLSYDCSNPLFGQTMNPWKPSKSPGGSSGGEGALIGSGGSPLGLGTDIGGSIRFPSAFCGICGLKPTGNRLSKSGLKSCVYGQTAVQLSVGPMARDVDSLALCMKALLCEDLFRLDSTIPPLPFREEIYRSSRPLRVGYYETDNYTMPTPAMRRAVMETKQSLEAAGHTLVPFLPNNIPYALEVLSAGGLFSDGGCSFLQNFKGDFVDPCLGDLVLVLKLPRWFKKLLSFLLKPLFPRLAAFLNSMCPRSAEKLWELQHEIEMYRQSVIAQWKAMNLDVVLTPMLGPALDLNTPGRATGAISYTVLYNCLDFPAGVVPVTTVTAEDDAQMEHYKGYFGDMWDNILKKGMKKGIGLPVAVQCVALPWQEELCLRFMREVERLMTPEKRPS
# Monoglyceride lipase = molecular target: T2, Monoglyceride lipase (Mus musculus, UniProt O35678); assay: as §1
# T2 sequence (O35678 whole entry): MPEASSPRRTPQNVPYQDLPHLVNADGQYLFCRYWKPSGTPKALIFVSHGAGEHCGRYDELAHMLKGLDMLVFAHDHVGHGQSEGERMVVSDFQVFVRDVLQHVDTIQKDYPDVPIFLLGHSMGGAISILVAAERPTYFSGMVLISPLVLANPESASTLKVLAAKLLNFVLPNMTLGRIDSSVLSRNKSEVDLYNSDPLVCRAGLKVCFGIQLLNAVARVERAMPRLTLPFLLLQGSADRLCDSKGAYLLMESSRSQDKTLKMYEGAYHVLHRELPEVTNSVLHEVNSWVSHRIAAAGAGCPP
SMILES,IC50 [1],IC50 (Monoglyceride lipase)
CC(=O)N(C)c1cnn(C(=O)N2CC3CN(Cc4cc(Cl)cc(N5CCC6(CCOCC6)C5)c4)CC3C2)c1 (stereo not given),< 100 nM,< 100 nM
CC(=O)N(C)c1cnn(C(=O)N2CC3CN(Cc4cccc(Oc5ccccn5)c4)CC3C2)c1 (stereo not given),< 100 nM,–
CC(=O)N(C)c1cnn(C(=O)N2CCN(Cc3ccc(C(F)(F)F)cc3)CC2)c1,–,< 100 nM
CC(=O)N(C)c1cnn(C(=O)N2CCN(Cc3ccc(Cl)c(Cl)c3)CC2)c1,–,< 100 nM
